Assay in all cases: relative viability (nuclei count vs DMSO), 5 days (fraction); higher = more cells survive
Compound in assay [1]: CCn1c(-c2nonc2N)nc2cnc(Oc3cccc(NC(=O)c4ccc(OCCN5CCOCC5)cc4)c3)cc21 + N=C(N)NC(=N)NCCc1ccccc1 [Phenformin] (partner 250 µM)
The method, boiled down: (§1)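 Cells from lung cancer lines were seeded into 1536-well plates and, one day later, dosed by pin tool. Treatments were either a single drug or a fixed dose of an anchor drug with five library-drug doses (not always all listed) in √10 steps. After 5 days, nuclei were stained in a one-step fixation (final 0.05% Triton X-100, 1% formaldehyde, 1 ug/ml Hoechst) and counted on 4× images, and relative viability is the treated-to-vehicle nuclei ratio, as the median of duplicate plates.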

Compound in assay [2]: CCn1c(-c2nonc2N)nc2cnc(Oc3cccc(NC(=O)c4ccc(OCCN5CCOCC5)cc4)c3)cc21 + Cc1cc(Nc2cc(N3CCN(C)CC3)nc(Sc3ccc(NC(=O)C4CC4)cc3)n2)n[nH]1 [Tozasertib] (partner 0.1 µM)
An outline of the steps: as §1

Compound in assay [3]: CCC1=CN=CN=C1N2CCN(CC2)CC3=NC4=C(N3)C=C(C=C4)C(F)(F)F + CCNC(=O)c1noc(-c2cc(C(C)C)c(O)cc2O)c1-c1ccc(CN2CCOCC2)cc1 [Luminespib] (partner 0.01 µM)
An outline of the steps:
as §1

Compound in assay [4]: CCn1c(-c2nonc2N)nc2cnc(Oc3cccc(NC(=O)c4ccc(OCCN5CCOCC5)cc4)c3)cc21 + NC(=O)Nc1cc(-c2cccc(F)c2)sc1C(=O)N[C@H]1CCCNC1 [AZD7762] (partner 0.2 µM)
An outline of the steps:
as §1

As to PC-3 [JPC-3], the relative viability in assay [1] (first compound 0.04 µM) was found to be 0.5; in assay [1] (first compound 0.1265 µM), 0.488; in assay [1] (first compound 0.4 µM) it was 0.478; in assay [1] (first compound 1.265 µM), 0.465; in assay [1] (first compound 4 µM), 0.459; in assay [2] (first compound 0.04 µM), 0.94. Moreover, the relative viability in assay [2] (first compound 0.1265 µM) is 0.866; in assay [2] (first compound 0.4 µM), 1.03; in assay [2] (first compound 1.265 µM), 0.861; in assay [2] (first compound 4 µM), 0.77; in assay [3] (first compound 0.04 µM), 0.681; in assay [3] (first compound 0.1265 µM), 0.733. The relative viability in assay [3] (first compound 0.4 µM) came out at 0.668; in assay [3] (first compound 1.265 µM), 0.71; in assay [3] (first compound 4 µM), 0.618; in assay [4] (first compound 0.04 µM), 0.892; in assay [4] (first compound 0.1265 µM) it was 0.889; in assay [4] (first compound 0.4 µM) it was 0.828. In addition, the results for the relative viability in assay [4] (first compound 1.265 µM) and in assay [4] (first compound 4 µM) were 0.56 and 0.658, respectively.
On to PC-14, for which the relative viability in assay [1] (first compound 0.04 µM) is 0.962; in assay [1] (first compound 0.1265 µM) it was 0.556; in assay [1] (first compound 0.4 µM) it was 0.549; in assay [1] (first compound 1.265 µM) it was 0.258; in assay [1] (first compound 4 µM) it was 0.457; in assay [2] (first compound 0.04 µM), 0.691. The relative viability worked out at 0.47 in assay [2] (first compound 0.1265 µM); 0.422 in assay [2] (first compound 0.4 µM); 0.326 in assay [2] (first compound 1.265 µM); 0.321 in assay [2] (first compound 4 µM); 0.175 in assay [3] (first compound 0.04 µM); 0.207 in assay [3] (first compound 0.1265 µM). The relative viability in assay [3] (first compound 0.4 µM) is 0.215; in assay [3] (first compound 1.265 µM) it was 0.134; in assay [3] (first compound 4 µM), 0.133; in assay [4] (first compound 0.04 µM), 0.334; in assay [4] (first compound 0.1265 µM), 0.323; in assay [4] (first compound 0.4 µM), 0.218. The relative viability came out at 0.215 in assay [4] (first compound 1.265 µM) and 0.232 in assay [4] (first compound 4 µM).
On to RERF-LC-KJ, for which the relative viability was 0.487 in assay [1] (first compound 0.04 µM); 0.42 in assay [1] (first compound 0.1265 µM); 0.379 in assay [1] (first compound 0.4 µM); 0.289 in assay [1] (first compound 1.265 µM); 0.324 in assay [1] (first compound 4 µM); 0.528 in assay [2] (first compound 0.04 µM). For the same cell line, the relative viability was found to be 0.318 in assay [2] (first compound 0.1265 µM); 0.283 in assay [2] (first compound 0.4 µM); 0.249 in assay [2] (first compound 1.265 µM); 0.217 in assay [2] (first compound 4 µM); 1.24 in assay [3] (first compound 0.04 µM); 1.23 in assay [3] (first compound 0.1265 µM). Further, the relative viability came out at 1.21 in assay [3] (first compound 0.4 µM); 1.12 in assay [3] (first compound 1.265 µM); 1.05 in assay [3] (first compound 4 µM); 0.941 in assay [4] (first compound 0.04 µM); 0.956 in assay [4] (first compound 0.1265 µM); 0.448 in assay [4] (first compound 0.4 µM). Further, the relative viability worked out at 0.298 in assay [4] (first compound 1.265 µM) and 0.538 in assay [4] (first compound 4 µM).
In the case of SW 900, the relative viability in assay [1] (first compound 0.04 µM) turned out to be 0.71; in assay [1] (first compound 0.1265 µM) it was 0.548; in assay [1] (first compound 0.4 µM), 0.506; in assay [1] (first compound 1.265 µM), 0.39; in assay [1] (first compound 4 µM), 0.548; in assay [2] (first compound 0.04 µM) it was 0.625. In addition, the relative viability in assay [2] (first compound 0.1265 µM) was 0.706; in assay [2] (first compound 0.4 µM), 0.637; in assay [2] (first compound 1.265 µM) it was 0.488; in assay [2] (first compound 4 µM), 0.431; in assay [3] (first compound 0.04 µM), 0.165; in assay [3] (first compound 0.1265 µM), 0.194. The relative viability came to 0.158 in assay [3] (first compound 0.4 µM); 0.177 in assay [3] (first compound 1.265 µM); 0.195 in assay [3] (first compound 4 µM); 0.668 in assay [4] (first compound 0.04 µM); 0.59 in assay [4] (first compound 0.1265 µM); 0.647 in assay [4] (first compound 0.4 µM). Besides, the relative viability was 0.435 in assay [4] (first compound 1.265 µM) and 0.495 in assay [4] (first compound 4 µM).

Values taken from the supplement of paper PMC10307832.
